The supplement of paper PMC10307832

Key:
Experiment in all cases: relative viability (nuclei count vs DMSO), 5 days (fraction); higher = more cells survive
KIN001-266 + Olaparib = compound: CCN1CCC(CC1)N2C=C(N=N2)CNC3=CC4=C(C(=CN=C4C(=C3)Cl)C#N)NC5=CC(=C(C=C5)F)Cl [KIN001-266] + O=C(c1cc(Cc2n[nH]c(=O)c3ccccc23)ccc1F)N1CCN(C(=O)C2CC2)CC1 [Olaparib] (partner 8 µM)
Summary of the method: (§1)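 Relative viability is defined as nuclei in treated wells over nuclei in vehicle wells. Duplicate plates were run and medians reported. Lung cancer cell lines in 1536-well plates were dosed by pin tool one day after seeding, with one drug or with a fixed anchor-drug dose plus five library-drug doses (not always all listed) in √10 steps, and nuclei were counted after 5 days.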

KIN001-266 + Lapatinib = compound: CCN1CCC(CC1)N2C=C(N=N2)CNC3=CC4=C(C(=CN=C4C(=C3)Cl)C#N)NC5=CC(=C(C=C5)F)Cl [KIN001-266] + CS(=O)(=O)CCNCc1ccc(-c2ccc3ncnc(Nc4ccc(OCc5cccc(F)c5)c(Cl)c4)c3c2)o1 [Lapatinib] (partner 2 µM)
Summary of the method: as §1

KIN001-266 + Luminespib = compound: CCN1CCC(CC1)N2C=C(N=N2)CNC3=CC4=C(C(=CN=C4C(=C3)Cl)C#N)NC5=CC(=C(C=C5)F)Cl [KIN001-266] + CCNC(=O)c1noc(-c2cc(C(C)C)c(O)cc2O)c1-c1ccc(CN2CCOCC2)cc1 [Luminespib] (partner 0.01 µM)
Summary of the method: as §1

KIN001-266 + Decitabine = compound: CCN1CCC(CC1)N2C=C(N=N2)CNC3=CC4=C(C(=CN=C4C(=C3)Cl)C#N)NC5=CC(=C(C=C5)F)Cl [KIN001-266] + Nc1ncn([C@H]2C[C@H](O)[C@@H](CO)O2)c(=O)n1 [Decitabine] (partner 2 µM)
Summary of the method: as §1

Cell Line | relative viability (KIN001-266 + Olaparib; first compound 0.08 µM) | relative viability (KIN001-266 + Olaparib; first compound 0.253 µM) | relative viability (KIN001-266 + Olaparib; first compound 0.8 µM) | relative viability (KIN001-266 + Olaparib; first compound 2.53 µM) | relative viability (KIN001-266 + Olaparib; first compound 8 µM) | relative viability (KIN001-266 + Lapatinib; first compound 0.08 µM) | relative viability (KIN001-266 + Lapatinib; first compound 0.253 µM) | relative viability (KIN001-266 + Lapatinib; first compound 0.8 µM) | relative viability (KIN001-266 + Lapatinib; first compound 2.53 µM) | relative viability (KIN001-266 + Lapatinib; first compound 8 µM) | relative viability (KIN001-266 + Luminespib; first compound 0.08 µM) | relative viability (KIN001-266 + Luminespib; first compound 0.253 µM) | relative viability (KIN001-266 + Luminespib; first compound 0.8 µM) | relative viability (KIN001-266 + Luminespib; first compound 2.53 µM) | relative viability (KIN001-266 + Luminespib; first compound 8 µM) | relative viability (KIN001-266 + Decitabine; first compound 0.08 µM) | relative viability (KIN001-266 + Decitabine; first compound 0.253 µM) | relative viability (KIN001-266 + Decitabine; first compound 0.8 µM) | relative viability (KIN001-266 + Decitabine; first compound 2.53 µM) | relative viability (KIN001-266 + Decitabine; first compound 8 µM)
NCI-H2228 | 0.692 | 0.735 | 0.682 | 0.727 | 0.496 | 1.06 | 1.04 | 0.883 | 0.834 | 0.882 | 0.136 | 0.13 | 0.145 | 0.172 | 0.112 |  |  |  |  | 
NCI-H2087 | 0.616 | 0.494 | 0.654 | 0.374 | 0.346 | 1.03 | 1.05 | 1.06 | 0.987 | 0.875 | 0.199 | 0.156 | 0.173 | 0.165 | 0.184 | 0.29 | 0.288 | 0.257 | 0.299 | 0.258
LU99A | 0.271 | 0.283 | 0.2 | 0.213 | 0.164 | 1.16 | 1.07 | 1.03 | 0.834 | 0.803 | 0.265 | 0.216 | 0.217 | 0.243 | 0.228 | 0.976 | 1.01 | 0.9 | 0.613 | 0.607
NCI-H1355 | 0.765 | 0.769 | 0.699 | 0.716 | 0.731 | 1.1 | 0.924 | 1.02 | 1.04 | 0.938 | 0.741 | 0.642 | 0.811 | 0.691 | 0.722 | 0.365 | 0.352 | 0.357 | 0.374 | 0.346
NCI-H520 | 0.339 | 0.299 | 0.374 | 0.267 | 0.239 | 0.899 | 0.85 | 1.02 | 0.718 | 0.886 | 0.246 | 0.289 | 0.228 | 0.192 | 0.22 | 0.538 | 0.548 | 0.576 | 0.474 | 0.459
NCI-H661 | 0.741 | 0.732 | 0.707 | 0.617 | 0.459 | 0.494 | 0.449 | 0.532 | 0.438 | 0.29 | 0.887 | 0.946 | 0.968 | 0.915 | 0.559 | 0.628 | 0.554 | 0.506 | 0.509 | 0.504
NCI-H650 | 0.452 | 0.381 | 0.349 | 0.336 | 0.34 | 1.04 | 1.07 | 0.849 | 1.12 | 1.16 | 0.847 | 0.902 | 0.838 | 0.822 | 0.81 | 0.346 | 0.337 | 0.309 | 0.319 | 0.306
NCI-H647 | 0.565 | 0.516 | 0.701 | 0.501 | 0.301 | 1.04 | 1.07 | 1.11 | 0.876 | 0.818 | 0.162 | 0.138 | 0.419 | 0.179 | 0.153 | 0.4 | 0.385 | 0.344 | 0.357 | 0.336
201T | 0.822 | 0.852 | 0.809 | 0.855 | 0.816 | 1.05 | 0.981 | 0.992 | 1.07 | 1.05 | 1.05 | 1.05 | 1 | 1.04 | 1.06 | 0.848 | 0.885 | 0.868 | 0.78 | 0.842
NCI-H838 | 0.775 | 0.811 | 0.764 | 0.68 | 0.471 | 0.988 | 0.989 | 1.13 | 1.06 | 0.866 | 0.27 | 0.284 | 0.328 | 0.2 | 0.186 | 0.476 | 0.488 | 0.454 | 0.423 | 0.371
SW 1573 | 0.459 | 0.5 | 0.542 | 0.404 | 0.313 | 1.09 | 1.13 | 1.11 | 0.88 | 1.04 | 0.268 | 0.272 | 0.195 | 0.238 | 0.211 | 0.504 | 0.447 | 0.699 | 0.427 | 0.429
PC-14 | 0.24 | 0.354 | 0.251 | 0.312 | 0.141 | 0.307 | 0.368 | 0.27 | 0.287 | 0.312 | 0.167 | 0.117 | 0.171 | 0.225 | 0.152 | 0.214 | 0.253 | 0.2 | 0.265 | 0.229
HCC-78 | 0.832 | 0.793 | 0.767 | 0.841 | 0.677 | 0.79 | 0.612 | 0.597 | 0.731 | 0.773 |  |  |  |  |  | 0.813 | 0.684 | 0.675 | 0.759 | 0.715
HCC-366 | 0.403 | 0.339 | 0.271 | 0.3 | 0.227 | 0.911 | 1.03 | 1 | 1.05 | 1.02 |  |  |  |  |  | 0.359 | 0.362 | 0.221 | 0.346 | 0.317
LCLC-103H | 0.727 | 0.762 | 0.722 | 0.742 | 0.756 |  |  |  |  |  | 0.96 | 1.01 | 0.95 | 0.923 | 0.695 | 0.702 | 0.742 | 0.636 | 0.689 | 0.706
NCI-H1563 |  |  |  |  |  | 1.05 | 1.1 | 0.968 | 0.922 | 0.835 | 0.496 | 0.498 | 0.534 | 0.602 | 0.524 |  |  |  |  | 
EBC-1 | 0.76 | 0.72 | 0.635 | 0.649 | 0.511 | 0.219 | 0.218 | 0.209 | 0.199 | 0.201 |  |  |  |  |  |  |  |  |  | 
Calu-6 | 0.649 | 0.653 | 0.587 | 0.542 | 0.365 | 1.09 | 1.05 | 1.02 | 1 | 0.899 |  |  |  |  |  |  |  |  |  | 
